PMC5901755 (ACS chemical neuroscience, 2016)

Target: T1, TREK-1 (Homo sapiens, UniProt O95069)
T1 sequence (O95069 1-426): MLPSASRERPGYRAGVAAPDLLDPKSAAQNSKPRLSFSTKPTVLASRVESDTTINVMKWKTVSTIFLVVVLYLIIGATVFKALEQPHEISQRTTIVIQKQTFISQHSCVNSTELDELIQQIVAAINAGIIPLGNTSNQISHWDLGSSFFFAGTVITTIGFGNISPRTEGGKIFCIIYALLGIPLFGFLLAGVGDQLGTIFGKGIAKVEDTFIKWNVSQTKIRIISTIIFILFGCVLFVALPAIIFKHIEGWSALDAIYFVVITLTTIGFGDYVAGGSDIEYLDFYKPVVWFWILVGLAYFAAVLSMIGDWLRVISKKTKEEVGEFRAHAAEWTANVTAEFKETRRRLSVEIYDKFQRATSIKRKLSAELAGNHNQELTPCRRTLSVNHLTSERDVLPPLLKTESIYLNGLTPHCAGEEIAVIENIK
Assay: Tl+ flux fluorescence
Type: cell-based
Conditions: inhibitor; 1.8 µM, 10 min pretreatment; pH 7.3

CCCCC[C@H](O)/C=C/[C@H]1CC[C@H](O)[C@@H]1C/C=C\CCCC(=O)O [11-deoxy prostaglandin F2α]
Tl+ flux fluorescence (Thallos), T-REx-HEK293: we observed that 11-deoxy prostaglandin F2α inhibited TREK-1 channels
